From US11028090B2 (Dong Wha Pharm. Co., Ltd., priority 2017, dated 2021)
Values joined by “and” are separate entries in the source; they are usually repeats but may differ in a detail not shown here. Equal entries are not always repeated. Structures can show the parent of a compound that is named as a salt. Where two headings read alike, the source gives them in different places.

Molecular target: BRD4 (BD1+BD2) bromodomain (Homo sapiens (Human), UniProt O60885)
Assay: BRD4 binding inhibition (AlphaScreen, GST-BRD4 vs tetraacetylated histone H4 peptide)
Method: A mixture comprising 100 nM GST-BRD4 (BD1+BD2) and 100 nM biotinylated acetyl-histone H4 (Lys5,8,12,16) peptide was prepared in assay buffer (50 mM HEPES pH 7.4; 25 mM NaCl; 0.05% Tween 20; 0.1% bovine serum albumin (BSA); 10 mM dithiothreitol (DTT)). After adding 6 μl of the mixture to the diluent, 6 μl of the pre-mixed AlphaLISA Glutathione Acceptor Beads and AlphaScreen Streptavidin Donor Beads (PerkinElmer, 10 μg/ml in assay buffer, respectively) was added thereto. The samples were incubated in the dark at room temperature for 30 minutes (shaking at 300 rpm). Then, the signals were measured with PerkinElmer Envision HTS Multilabel Reader using an alpha screen protocol of PerkinElmer. Each plate contained the negative control in which biotinylated acetyl-histone H4 peptide and GST-BRD4 (BD1+BD2) were replaced by assay buffer. In the case of using the software GraphPad Prism for calculation, the negative control point was input as a low standard value. The positive control (probe molecule l-BET762 containing protein/peptide mixture) proceeded to pipetting.

[1] = GST-BRD4 (BD1+BD2) / biotinylated acetyl-histone H4 (Lys5,8,12,16) peptide, read-out: IC50, BRD4 binding inhibition
[2] = GST-BRD4 (BD1+BD2) vs biotinylated acetyl-histone H4 peptide, AlphaScreen, read-out: BRD4 IC50

SMILES	IC50 [1]	IC50 [2]
COc1ccc2c(c1)nc(NCCCCNC(=O)CC(C)C)c1nnc(C(C)C)n12 [Example 627]	≤ 50 nM	23 nM
Cc1cc2nc(NCCCCNC(=O)OC(C)(C)C)c3nnc(C)n3c2cc1C [Example 34, [4-(1,7,8-trimethyl-[1,2,4]triazolo[4,3-a]quinoxaline-4-ylamino)-butyl]-carbamic acid-tert-butylester]		81 nM
Cc1ccc2nc(NCCCCNC(=O)OC(C)(C)C)c3nnc(C)n3c2c1 [Example 40, [4-(1,8-dimethyl-[1,2,4]triazolo[4,3-a]quinoxaline-4-ylamino)-butyl]-carbamic acid-tert-butylester]		69 nM
COc1ccc2c(c1)nc(NCCCCNC(=O)[C@H](Cc1ccc(O)cc1)NC(=O)OC(C)(C)C)c1nnc(C)n12 [Example 325, (S)-{2-(4-hydroxy-phenyl)-1-[4-(7-methoxy-1-methyl-[1,2,4]triazolo[4,3-a]quinoxaline-4-ylamino)-butylcarbamoyl]-ethyl}-carbamic acid-tert-butylester]		71 nM
Cc1nnc2c(NCCCCNC(=O)OC(C)(C)C)nc3ccc(N)cc3n12 [Example 542, [4-(8-amino-1-methyl-[1,2,4]triazolo[4,3-a]quinoxaline-4-ylamino)-butyl]-carbamic acid-tert-butylester]		61 nM
Cc1nnc2c(NCCCCNC(=O)[C@H](O)C(C)C)nc3cc(N4CCSCC4)ccc3n12 [Example 524, N-[4-(7-thiomorphonyl-4-yl-1-methyl-[1,2,4]triazolo[4,3-a]quinoxaline-4-ylamino)-butyl]-2-(R)-hydroxy-3-methyl-butyramide]		69 nM
CC(=O)Nc1ccc2nc(NCCCCNC(=O)C(C)(C)C)c3nnc(C)n3c2c1 [Example 547, N-[4-(8-acetamino-1-methyl-[1,2,4]triazolo[4,3-a]quinoxaline-4-ylamino)-butyl]-2,2-dimethyl-propionamide]	≤ 50 nM	
COc1ccc(C(=O)c2ccc3c(c2)nc(NCCCCNC(=O)OC(C)(C)C)c2nnc(C)n23)cc1 [Example 262, {4-[7-(4-methoxy-benzoyl)-1-methyl-[1,2,4]triazolo[4,3-a]quinoxaline-4-ylamino]-butyl}-carbamic acid-tert-butylester]		72 nM
COc1ccc2c(c1)nc(NCCCCNC(=O)N(C)C)c1nnc(C)n12 [Example 334, 3-[4-(7-methoxy-1-methyl-[1,2,4]triazolo[4,3-a]quinoxaline-4-ylamino)-butyl]-1,1-dimethyl-urea]		60 nM
Cc1nnc2c(NCCCCNC(=O)OCc3ccccc3)nc3ccccc3n12 [Example 25, [4-(1-methyl-[1,2,4]triazolo[4,3-a]quinoxaline-4-ylamino)-butyl]-carbamic acid benzylester]		55 nM
COc1ccc2c(c1)nc(NCCCCNC(=O)C(C)(C)OC(C)=O)c1nnc(C)n12 [Example 296, acetic acid-1-[4-(7-methoxy-1-methyl-[1,2,4]triazolo[4,3-a]quinoxaline-4-ylamino)-butylcarbamoyl]-1-methyl-ethylester]	≤ 50 nM	96 nM and 27 nM
COc1cc2nc(NCCCCC(=O)NC(C)(C)C)c3nnc(C)n3c2cc1OC [Example 646]		56 nM
COc1cc(C)c2c(c1)nc(NCCCCN)c1nnc(C)n12 [Example 456, N^1-(7-methoxy-1,9-dimethyl-[1,2,4]triazolo[4,3-a]quinoxaline-4-yl)-butane-1,4-diamine ditrifluoroacetic acid]		75 nM
Cc1nnc2c(NCCCCNC(=O)OC(C)(C)C)nc3ccc(C(=O)Nc4ccccc4)cc3n12 [Example 538, [4-(1-methyl-8-phenylcarbamoyl-[1,2,4]triazolo[4,3-a]quinoxaline-4-ylamino)-butyl]-carbamic acid-tert-butylester]		69 nM

The next lines start with the values.

IC50 [1]	IC50 [2]	SMILES
≤ 50 nM	40 nM	Cc1nnc2c(NCCCCNC(=O)[C@H](O)C(C)C)nc3ccccc3n12 [Example 9, 2-(R)-hydroxy-N-[4-(1-methyl-[1,2,4]triazolo[4,3-a]quinoxaline-4-ylamino)-butyl]-3-methyl-butyramide]
≤ 50 nM	31 nM	Cc1nnc2c(NCCCCNC(=O)c3ccccc3)nc3cc(Cl)c(Cl)cc3n12 [Example 31, N-[4-(7,8-dichloro-1-methyl-[1,2,4]triazolo[4,3-a]quinoxaline-4-ylamino)-butyl]-benzamide]
≤ 50 nM	19 nM	COc1c(C)ccc2c1nc(NCCCCNC(=O)OCC(C)C)c1nnc(C)n12 [Example 134, [4-(6-methoxy-1,7-dimethyl-[1,2,4]triazolo[4,3-a]quinoxaline-4-ylamino)-butyl]-carbamic acid isobutylester]
≤ 50 nM	49 nM	COCCOc1ccc2c(c1)nc(NCCCCNC(=O)c1ccncc1)c1nnc(C)n12 [Example 418, N-{4-[7-(2-methoxy-ethoxy)-1-methyl-[1,2,4]triazolo[4,3-a]quinoxaline-4-ylamino]-butyl}-isonicotinamide]
≤ 50 nM	21 nM	Cc1nnc2c(NCCCCNC(=O)[C@H](O)C(C)C)nc3cc(OCCN4CCOCC4)ccc3n12 [Example 434, 2-(R)-hydroxy-N-{4-[7-(2-morpholine-4-yl-ethoxy)-1-methyl-[1,2,4]triazolo[4,3-a]quinoxaline-4-ylamino]-butyl}-3-methyl-butyramide]
≤ 50 nM	17 nM	COCCOc1ccc2c(c1)nc(NCCCCNC(=O)Nc1ccccc1)c1nnc(C)n12 [Example 427, 3-{4-[7-(2-methoxy-ethoxy)-1-methyl-[1,2,4]triazolo[4,3-a]quinoxaline-4-ylamino]-butyl}-1-phenyl-urea]
≤ 50 nM	18 nM	COCCOc1ccc2c(c1)nc(NCCCCNC(=O)[C@@H](NC(=O)C(C)(C)C)C(C)C)c1nnc(C)n12 [Example 402, (S)-2-(2,2-dimethyl-propionylamino)-N-{4-[7-(2-methoxy-ethoxy)-1-methyl-[1,2,4]triazolo[4,3-a]quinoxaline-4-ylamino]-butyl}-3-methyl-butyramide]
≤ 50 nM	45 nM	CC(=O)Nc1ccc2nc(NCCCCNC(=O)c3ccccc3)c3nnc(C)n3c2c1 [Example 548, N-[4-(8-acetamino-1-methyl-[1,2,4]triazolo[4,3-a]quinoxaline-4-ylamino)-butyl]-benzamide]
≤ 50 nM	29 nM	COCCOc1ccc2c(c1)nc(NCCCCNC(=O)[C@@H](N)C(C)C)c1nnc(C)n12 (stereo in doubt) [Example 397, 2-amino-N-{4-[7-(2-methoxy-ethoxy)-1-methyl-[1,2,4]triazolo[4,3-a]quinoxaline-4-ylamino]-butyl}-3-methyl-butyramide]
≤ 50 nM	46 nM	COc1ccc2c(c1)nc(NCCCCNC(=O)OC(C)C)c1nnc(C(F)(F)F)n12 [Example 589, [4-(7-methoxy-1-trifluoromethyl-[1,2,4]triazolo[4,3-a]quinoxaline-4-ylamino)-butyl]-carbamic acid isopropylester]
≤ 10 nM	7 nM	Cc1noc(C)c1-c1ccc2c(c1)nc(NCCCCNC(=O)[C@@H](O)C(C)C)c1nnc(C)n12 [Example 587, N-{4-[7-(3,5-dimethyl-isoxazol-4-yl)-1-methyl-[1,2,4]triazolo[4,3-a]quinoxaline-4-ylamino]-butyl}-2-(S)-hydroxy-3-methyl-butyramide]
≤ 50 nM	37 nM	Cc1nnc2c(NCCCCNC(=O)OC(C)(C)C)nc3ccc([N+](=O)[O-])cc3n12 [Example 541, [4-(1-methyl-8-nitro-[1,2,4]triazolo[4,3-a]quinoxaline-4-ylamino)-butyl]-carbamic acid-tert-butylester]
≤ 50 nM	30 nM	CC(=O)OCC(=O)NCCCCNc1nc2cc3c(cc2n2c(C)nnc12)OCCO3 [Example 184]
≤ 50 nM	20 nM	COc1cc2nc(NCCCCNC(=O)C(C)(C)C)c3nnc(C)n3c2cc1C(F)(F)F [Example 477, N-[4-(7-methoxy-1-methyl-8-trifluoromethyl-[1,2,4]triazolo[4,3-a]quinoxaline-4-ylamino)-butyl]-2,2-dimethyl-propionamide]
≤ 50 nM	44 nM	COc1cc2nc(NCCCCNC(=O)[C@H](O)C(C)C)c3nnc(C)n3c2cc1C(F)(F)F [Example 478, 2-(R)-hydroxy-N-[4-(7-methoxy-1-methyl-8-trifluoromethyl-[1,2,4]triazolo[4,3-a]quinoxaline-4-ylamino)-butyl]-3-methyl-butyramide]
≤ 50 nM	42 nM	Cc1nnc2c(NCCCCNC(=O)OC(C)(C)C)nc3cc(C(=O)NC(C)(C)C)ccc3n12 [Example 203, [4-(7-tert--butylcarbamoyl-1-methyl-[1,2,4]triazolo[4,3-a]quinoxaline-4-ylamino)-butyl]-carbamic acid-tert-butylester]
≤ 50 nM	34 nM	Cc1nnc2c(NCCCCNC(=O)[C@@H](NC(=O)[C@H](C)O)C(C)C)nc3cc(N4CCOCC4)ccc3n12 [Example 504, (S)-2-(2-(S)-hydroxy-propionylamino)-3-methyl-N-[4-(1-methyl-7-morpholine-4-yl-[1,2,4]triazolo[4,3-a]quinoxaline-4-ylamino)-butyl]-butyramide hydrochloride]
